Test results from patent publication US10800789B2, “Antiviral compounds” (Gilead Pharmasset LLC, priority 2012, dated 2020).
Like-named read-outs stand apart in the source and are kept apart here.

How the values were obtained:
[1] = system: NS5A chimeric genotype 1b Con1 replicon with genotype 3a S52 strain NS5A gene; experiment: Replicon assay, genotype 3a NS5A chimera; format: cell-based, HCV; conditions: Hepatitis C virus
[2] = system: NS5A chimeric genotype 2a JFH-1 replicon with genotype 2a J6 strain NS5A gene (M31 present); experiment: Replicon assay, genotype 2a J6 NS5A chimera; format: cell-based, HCV; conditions: Hepatitis C virus
Procedure: (§1) Evaluation of Cell-Based Anti-HCV Activity:
(§2) Antiviral potency (EC50) was determined using a Renilla luciferase (RLuc)-based HCV replicon reporter assay. To perform the assay for genotype 1 and 2a JFH-1, stable HCV 1a RLuc replicon cells (harboring a dicistronic genotype 1a H77 replicon that encodes a RLuc reporter), stable HCV 1b RLuc replicon cells (harboring a dicistronic genotype 1b Con1 replicon that encodes a RLuc reporter), or stable HCV 2a JFH-1 Rluc replicon cells (harboring a dicistronic genotype 2a JFH-1 replicon that encodes a RLuc reporter; with L31 present in NS5A) were dispensed into 384-well plates for EC50 assays. To perform the assay for genotype 2a (with M31 present in NS5A) or 2b, NS5A chimeric genotype 2a JFH-1 replicons that encodes a RLuc-Neo reporter and either genotype 2a J6 strain NS5A gene or genotype 2b MD2b-1 strain NS5A gene (both with M31 present) respectively, were either transiently transfected (t) into Huh-Lunet cells or were established as stably replicating replicon cells (s) is provided. Either cells were dispensed into 384-well plates for EC50 assays. To perform the assay for genotype 3 and 4, NS5A chimeric genotype 1b Con1 replicons that encodes a Pi-RLuc reporter and either genotype 3a S52 strain NS5A gene or genotype 4a ED43 strain NS5A gene respectively, were transiently transfected (t) into Huh-Lunet cells, which were subsequently dispensed into 384-well plates. Compounds were dissolved in DMSO at a concentration of 10 mM and diluted in DMSO either manually or using an automated pipeting instrument. Serially 3-fold diluted compounds were either manually mixed with cell culture media and added to the seeded cells or directly added to the cells using an automated instrument. DMSO was used as a negative (solvent; no inhibition) control, and the protease inhibitor ITMN-191 was included at a concentration>100×EC50 as a positive control. 72 hours later, cells were lysed and Renilla luciferase activity quantified as recommended by the manufacturer (Promega-Madison, Wis.). Non-linear regression was performed to calculate EC50 values.

[3] = system: NS5A chimeric genotype 2a JFH-1 replicon with genotype 2b MD2b-1 strain NS5A gene (M31 present); experiment: Replicon assay, genotype 2b NS5A chimera; format: cell-based, HCV; conditions: Hepatitis C virus
Procedure: as §1, §2

[4] = system: stable HCV 2a JFH-1 Rluc replicon cells (L31 present in NS5A); experiment: Renilla luciferase HCV replicon reporter assay, genotype 2a JFH-1; format: cell-based; conditions: Hepatitis C virus
Procedure: as §1, §2

[5] = system: NS5A chimeric genotype 1b Con1 replicon with genotype 4a ED43 strain NS5A gene; experiment: Replicon assay, genotype 4a NS5A chimera; format: cell-based, HCV; conditions: Hepatitis C virus
[6] = system: stable HCV 1a RLuc replicon cells (dicistronic genotype 1a H77 replicon); experiment: Renilla luciferase HCV replicon reporter assay, genotype 1a; format: cell-based; conditions: Hepatitis C virus, 72 h, stable 1a H77 RLuc replicon cells
Procedure: as §1, §2

[7] = system: stable HCV 1b RLuc replicon cells (dicistronic genotype 1b Con1 replicon); experiment: Renilla luciferase HCV replicon reporter assay, genotype 1b; format: cell-based; conditions: Hepatitis C virus, 72 h, stable 1b Con1 RLuc replicon cells, 72 hours; read-out: 1b
Procedure: as §1, §2

[8] = read-out: 3a (s) (nM), genotype 3a NS5A chimeric replicon, stable replicon cells (s)
[9] = read-out: 3a (s), (s), activity range
[10] = read-out: 2a J6 (t) (nM), genotype 2a J6 NS5A chimeric replicon (M31), transiently transfected (t) into Huh-Lunet cells
[11] = read-out: 2a J6 (t), transiently transfected (t) into Huh-Lunet cells, activity range
[12] = 2BS, read-out: 2b (s), stably replicating replicon cells (s), activity range
[13] = read-out: 2b (s) (nM), genotype 2b MD2b-1 NS5A chimeric replicon (M31), stably replicating replicon cells (s)
[14] = read-out: 2a JFH (nM), genotype 2a JFH-1 replicon (L31 in NS5A), stable cells
[15] = read-out: 2a JFH, stable 2a JFH-1 Rluc replicon cells, L31 in NS5A, activity range
[16] = read-out: 4a (s) (nM), genotype 4a NS5A chimeric replicon, stable replicon cells (s)
[17] = read-out: 4a (s), (s), activity range

Row | SMILES | EC50 [1, 8] [nM] | EC50 [1, 9] [nM] | EC50 [2, 10] [nM] | EC50 [2, 11] [nM] | EC50 [3, 12] [nM] | EC50 [3, 13] [nM] | EC50 ([3]; read-out: 2b (t) (nM), genotype 2b MD2b-1 NS5A chimeric replicon (M31), transiently transfected (t)) [nM] | EC50 ([3]; read-out: 2b (t), transiently transfected (t) into Huh-Lunet cells, activity range) [nM] | EC50 [4, 14] [nM] | EC50 [4, 15] [nM] | EC50 [5, 16] [nM] | EC50 [5, 17] [nM] | EC50 [6] [pM] | EC50 ([6]; activity range) [pM] | EC50 [7] [pM] | EC50 ([1]; read-out: 3a (t) (nM), genotype 3a NS5A chimeric replicon, transiently transfected (t)) [nM] | EC50 ([1]; read-out: 3a (t), transiently transfected (t) into Huh-Lunet cells, activity range) [nM]
1 | COC(=O)N[C@H](C(=O)N1C[C@@H](C)C[C@H]1c1ncc(-c2ccc3c(c2)COc2cc4c(ccc5nc([C@@H]6CC[C@H](C)N6C(=O)[C@@H](NC(=O)OC)[C@@H](C)OC)[nH]c54)cc2-3)[nH]1)[C@@H](C)OC [DZ, Methyl [(2S,3R)-3-methoxy-1-{(2S,5S)-2-[9-(2-{(2S,5S)-1-[N-(methoxycarbonyl)-O-methyl-L-threonyl]-4-methylpyrrolidin-2-yl}-1H-imidazol-5-yl)-1,11-dihydroisochromeno[4′,3′:6,7]naphtho[1,2-d]imidazol-2-yl]-5-methylpyrrolidin-1-yl}-1-oxobutan-2-yl]carbamate] | 0.089 | < 0.1 | 0.054 | < 0.1 | 0.1 to 0.999 | 0.173 | 0.072 | < 0.1 | 0.016 | < 0.1 | 0.02 | < 0.1 | 21 | < 100 | 35 |  | 
2 | CC[C@H](C)[C@H](NC(=O)OC)C(=O)N1[C@@H](C)CC[C@H]1c1ncc(-c2ccc3c(c2)COc2cc4c(ccc5nc([C@@H]6CC[C@H](C)N6C(=O)[C@@H](NC(=O)OC)[C@@H](C)CC)[nH]c54)cc2-3)[nH]1 [EC, Methyl {(2S,3S)-1-[(2S,5S)-2-(9-{2-[(2S,5S)-1-{(2S,3S)-2-[(methoxycarbonyl)amino]-3-methylpentanoyl}-5-methylpyrrolidin-2-yl]-1H-imidazol-5-yl}-1,11-dihydroisochromeno[4′,3′:6,7]naphtho[1,2-d]imidazol-2-yl)-5-methylpyrrolidin-1-yl]-3-methyl-1-oxopentan-2-yl}carbamate] | 0.029 | < 0.1 | 0.429 | 0.1 to 0.999 | 0.1 to 0.999 | 0.4 |  |  | 0.015 | < 0.1 | 0.004 | < 0.1 | 8 | < 100 | 17 |  | 
3 | CC[C@H](C)[C@H](NC(=O)OC)C(=O)N1C[C@@H](COC)C[C@H]1c1nc2ccc3cc4c(cc3c2[nH]1)OCc1cc(-c2cnc([C@@H]3CC[C@H](C)N3C(=O)[C@@H](NC(=O)OC)[C@@H](C)OC)[nH]2)ccc1-4 [ED, methyl{(2S,3S)-1-[(2S,4S)-2-(9-{2-[(2S,5S)-1-{(2S,3R)-3-methoxy-2-[(methoxycarbonyl)amino]butanoyl}-5-methylpyrrolidin-2-yl]-1H-imidazol-5-yl}-1,11-dihydroisochromeno[4′,3′:6,7]naphtho[1,2-d]imidazol-2-yl)-4-(methoxymethyl)pyrrolidin-1-yl]-3-methyl-1-oxopentan-2-yl}carbamate] | 0.099 | < 0.1 | 0.021 | < 0.1 | 0.1 to 0.999 | 0.241 |  |  | 0.011 | < 0.1 | 0.025 | < 0.1 | 15 | < 100 | 29 |  | 
4 | COC[C@H]1C[C@@H](c2nc3ccc4cc5c(cc4c3[nH]2)OCc2cc(-c3cnc([C@@H]4CC[C@H](C)N4C(=O)[C@@H](NC(=O)OC)C(C)C)[nH]3)ccc2-5)N(C(=O)[C@@H](NC(=O)OC)C2CCOCC2)C1 [EF, methyl[(1 S)-2-[(2S,4S)-2-(9-{2-[(2S,5S)-1-{(2S)-2-[(methoxycarbonyl)amino]-3-methylbutanoyl}-5-methylpyrrolidin-2-yl]-1H-imidazol-5-yl}-1,11 dihydroisochromeno[4′,3′:6,7]naphtho[1,2-d]imidazol-2-yl)-4-(methoxymethyl)pyrrolidin-1-yl]-2-oxo-1-(tetra hydro-2H-pyran-4-yl)ethyl]carbamate] | 0.12 | 0.1 to 0.999 | 0.023 | < 0.1 | < 0.1 | 0.091 |  |  | 0.014 | < 0.1 | 0.02 | < 0.1 | 39 | < 100 | 53 | 0.102 | 0.1 to 0.999
5 | COC[C@H]1C[C@@H](c2ncc(-c3ccc4c(c3)COc3cc5c(ccc6nc([C@@H]7CC[C@H](C)N7C(=O)[C@@H](NC(=O)OC)C(C)C)[nH]c65)cc3-4)[nH]2)N(C(=O)[C@@H](NC(=O)OC)C2CCOCC2)C1 [GI, Methyl [(2S)-1-{(2S,4S)-2-[9-(2-{(2S,5S)-1-[(2S)-2-[(methoxycarbonyl)amino]-2-(tetrahydro-2H-pyran-4-yl)acetyl]-4-(methoxymethyl)pyrrolidin-2-yl}-1H-imidazol-5-yl)-1,11-dihydroisochromeno[4′,3′:6,7]naphtho[1,2-d]imidazol-2-yl]-5-methylpyrrolidin-1-yl}-3-methyl-1-oxobutan-2-yl]carbamate] | 0.126 | 0.1 to 0.999 |  |  | 0.1 to 0.999 | 0.193 |  |  | 0.025 | < 0.1 | 0.022 | < 0.1 | 55 | < 100 | 64 |  | 
6 | CC[C@H]1CC[C@@H](c2ncc(-c3ccc4c(c3)COc3cc5c(ccc6nc([C@@H]7CC[C@H](C)N7C(=O)[C@@H](NC(=O)OC)[C@@H](C)CC)[nH]c65)cc3-4)[nH]2)N1C(=O)C(NC(=O)OC)C1CCOCC1 (stereo partly shown) [IJ] | 0.127 | 0.1 to 0.999 |  |  | 0.1 to 0.999 | 0.212 |  |  | 0.012 | < 0.1 | 0.036 | < 0.1 | 27 | < 100 | 29 |  | 
7 | CC[C@H]1CC[C@@H](c2ncc(-c3ccc4c(c3)COc3cc5c(ccc6nc([C@@H]7CC[C@H](C)N7C(=O)[C@@H](NC(=O)OC)C7CCOCC7)[nH]c65)cc3-4)[nH]2)N1C(=O)[C@@H](NC(=O)OC)[C@@H](C)CC [IM] | 0.15 | 0.1 to 0.999 |  |  | 0.1 to 0.999 | 0.212 |  |  | 0.016 | < 0.1 | 0.043 | < 0.1 | 33 | < 100 | 40 |  | 
8 | CC[C@H]1CC[C@@H](c2nc3ccc4cc5c(cc4c3[nH]2)OCc2cc(-c3cnc([C@@H]4C[C@@H]6CCC[C@@H]6N4C(=O)[C@@H](NC(=O)OC)[C@@H](C)CC)[nH]3)ccc2-5)N1C(=O)[C@@H](NC(=O)OC)C1CCOCC1 [IX] | 0.246 | 0.1 to 0.999 |  |  | 0.1 to 0.999 | 0.236 |  |  | 0.024 | < 0.1 | 0.057 | < 0.1 | 35 | < 100 | 52 |  | 
